What all share (format): functional, organism-based
Assay [1] has as its system Acinetobacter baumannii. The experiment in a line: Antibacterial activity against efflux pump lacking Acinetobacter baumannii assessed as inhibition of bacterial growth.
For assay [2], the system named is Pseudomonas aeruginosa. The experiment in a line: Antibacterial activity against efflux pump lacking/recombinant OM pore producing Pseudomonas aeruginosa assessed as inhibition of bacterial growth.
Assay [3] relates to Pseudomonas aeruginosa. As to the kind of experiment: Antibacterial activity against recombinant OM pore producing Pseudomonas aeruginosa assessed as inhibition of bacterial growth.
Assay [4] has as its system Escherichia coli. As to the kind of experiment: Antibacterial activity against efflux pump lacking/recombinant OM pore producing Escherichia coli assessed as inhibition of bacterial growth.
Assay [5] has as its system Escherichia coli. As to the kind of experiment: Antibacterial activity against wild type Escherichia coli assessed as inhibition of bacterial growth.
Assay [6] concerns Acinetobacter baumannii. As to the kind of experiment: Antibacterial activity against wild type Acinetobacter baumannii assessed as inhibition of bacterial growth.
Assay [7] has as its system Escherichia coli. The experiment in a line: Antibacterial activity against efflux pump lacking Escherichia coli assessed as inhibition of bacterial growth.
The test system of assay [8] is Acinetobacter baumannii. The experiment in a line: Antibacterial activity against efflux pump lacking/recombinant OM pore producing Acinetobacter baumannii assessed as inhibition of bacterial growth.
For assay [9], the system named is Pseudomonas aeruginosa. As to the kind of experiment: Antibacterial activity against efflux pump lacking Pseudomonas aeruginosa assessed as inhibition of bacterial growth.
Assay [10] concerns Acinetobacter baumannii. The experiment in a line: Antibacterial activity against recombinant OM pore producing Acinetobacter baumannii assessed as inhibition of bacterial growth.
In assay [11] the test system is Escherichia coli. The experiment in a line: Antibacterial activity against recombinant OM pore producing Escherichia coli assessed as inhibition of bacterial growth.
Assay [12] has as its system Pseudomonas aeruginosa. The experiment in a line: Antibacterial activity against wild type Pseudomonas aeruginosa assessed as inhibition of bacterial growth.

Where only a bound is given, the exact number is not on record here.

As for `CSCC#Cc1ccc(N2C[C@H](CO)OC2=O)cc1F`, the IC50 in assay [1] was greater than 100 µM; in assay [2], greater than 100 µM; in assay [3] it was greater than 100 µM; in [4] it was 47.8 µM; in assay [5], 94.9 µM; in assay [6], greater than 100 µM. For the same molecule, the half-maximal inhibitory concentration (IC50) in assay [7] was 65.9 µM; in assay [8] it was greater than 100 µM; in [9], greater than 100 µM; in assay [10] it was greater than 100 µM; in assay [11], 35.1 µM; in [12] it was greater than 100 µM.
Take `COc1ccc(CNC(=O)OC(C)(C)C)cc1OCC#Cc1ccc(N2C[C@H](CO)OC2=O)cc1F`: the 50% inhibitory concentration (IC50) was 72.2 µM in [1]; 46.9 µM in assay [2]; greater than 100 µM in assay [3]; 44.4 µM in assay [4]; greater than 100 µM in [5]; greater than 100 µM in [6]. In addition, the 50% inhibitory concentration (IC50) was 42.9 µM in [7]; 28.7 µM in assay [8]; greater than 100 µM in [9]; 42.4 µM in [10]; greater than 100 µM in assay [11]; greater than 100 µM in [12].
`C[n+]1ccc2cc(-c3ccc(N4C[C@H](CO)OC4=O)cc3F)ccc2c1`: the IC50 in assay [1] is 29.7 µM; in [2] it was greater than 100 µM; in assay [3], greater than 100 µM; in [4] it was 11.4 µM; in assay [5], 63.6 µM; in [6], greater than 100 µM. In addition, the IC50 in [7] is 4 µM; in assay [8], 27.9 µM; in [9], greater than 100 µM; in [10], 20.1 µM; in assay [11] it was 30 µM; in [12] it was greater than 100 µM.
Consider `O=C1O[C@@H](CO)CN1c1ccc(-c2ccc(F)cc2)c(F)c1`, for which the IC50 in assay [1] is 8.8 µM; in [2], 2.2 µM; in [3], 89.8 µM; in [4] it was 2.3 µM; in [5] it was 89.1 µM; in assay [6] it was greater than 100 µM. Moreover, the IC50 in assay [7] was 4.3 µM; in [8] it was 9.7 µM; in [9], 8.8 µM; in assay [10], 89.8 µM; in assay [11], 22.8 µM; in assay [12] it was greater than 100 µM.
Take `O=C1O[C@@H](CO)CN1c1ccc(-c2ccnc(N3CCCC3)c2)c(F)c1`: the IC50 is 72.4 µM in [1]; greater than 100 µM in assay [2]; greater than 100 µM in [3]; 1.5 µM in [4]; greater than 100 µM in assay [5]; 71.9 µM in [6]. The IC50 is 15.4 µM in assay [7]; 72.4 µM in assay [8]; greater than 100 µM in assay [9]; 71.9 µM in assay [10]; 4 µM in [11]; greater than 100 µM in assay [12].
`CC(C)(C)Oc1cc(-c2ccc(N3C[C@H](CO)OC3=O)cc2F)cnc1C#N`: the 50% inhibitory concentration (IC50) in assay [1], in assay [2], in [3], in [4], in [5] and in assay [6] was greater than 100 µM throughout. In addition, the IC50 in assay [7], in [8], in assay [9], in [10], in assay [11] and in [12] was greater than 100 µM in each case.
`COc1ccc(CN)cc1OCC#Cc1ccc(N2C[C@H](CO)OC2=O)cc1F`: the IC50 in assay [1], in assay [2], in assay [3], in assay [4], in assay [5] and in assay [6] was greater than 100 µM each time. The IC50 in assay [7], in assay [8], in assay [9], in assay [10], in [11] and in [12] was greater than 100 µM throughout.
Regarding `O=C1NCCN1CC#Cc1ccc(N2C[C@H](CO)OC2=O)cc1F`, the concentration for half-maximal inhibition (IC50) in assay [1] is greater than 100 µM; in assay [2], greater than 100 µM; in [3], greater than 100 µM; in assay [4], 39 µM; in assay [5], greater than 100 µM; in assay [6], greater than 100 µM. The IC50 in assay [7] was 64.3 µM; in [8], greater than 100 µM; in assay [9], greater than 100 µM; in assay [10], greater than 100 µM; in [11], greater than 100 µM; in assay [12], greater than 100 µM.
As to `C[n+]1ccccc1-c1ccc(-c2ccc(N3C[C@H](CO)OC3=O)cc2F)cc1`, the IC50 in assay [1] was 20.4 µM; in assay [2], 1.2 µM; in [3], 15.9 µM; in [4] it was 4.4 µM; in [5], 72.6 µM; in [6], greater than 100 µM. Moreover, the concentration for half-maximal inhibition (IC50) in [7] is 3.1 µM; in assay [8] it was 10.2 µM; in assay [9] it was 8.4 µM; in assay [10] it was 13.3 µM; in [11] it was 13.2 µM; in [12] it was greater than 100 µM.
In the case of `CC(=O)OCC#Cc1ccc(N2C[C@H](CO)OC2=O)cc1F`, the IC50 was greater than 100 µM in [1]; greater than 100 µM in [2]; greater than 100 µM in assay [3]; 39.7 µM in assay [4]; greater than 100 µM in assay [5]; greater than 100 µM in assay [6]. The IC50 in assay [7] was 72.4 µM; in [8], greater than 100 µM; in [9], greater than 100 µM; in [10], greater than 100 µM; in assay [11], 44.4 µM; in [12] it was greater than 100 µM.
`O=Cc1ccc(-c2ccc(N3C[C@H](CO)OC3=O)cc2F)cc1`: the IC50 came to 1.1 µM in [1]; 0.02 µM in assay [2]; 5.9 µM in assay [3]; 0.5 µM in assay [4]; 66.8 µM in assay [5]; 18.4 µM in assay [6]. The IC50 in assay [7] was 0.6 µM; in assay [8], 1.2 µM; in assay [9] it was 1.1 µM; in assay [10] it was 16.9 µM; in [11], 5 µM; in assay [12], greater than 100 µM.
Consider `NC(CO)CC#Cc1ccc(N2C[C@H](CO)OC2=O)cc1F` (stereo partly drawn), for which the half-inhibitory concentration (IC50) in [1], in [2], in [3], in [4], in [5] and in [6] was greater than 100 µM in each case. In addition, the IC50 in assay [7], in [8], in [9], in assay [10], in assay [11] and in [12] was greater than 100 µM in each case.
On to `O=C1O[C@@H](CO)CN1c1ccc(-c2ccc(-c3cccnc3)cc2)c(F)c1`, for which the IC50 in assay [1], in [2], in assay [3], in [4], in assay [5] and in assay [6] was greater than 100 µM each time. The half-maximal inhibitory concentration (IC50) in assay [7], in [8], in assay [9], in assay [10], in assay [11] and in assay [12] was greater than 100 µM each time.
For `O=C1O[C@@H](CO)CN1c1ccc(-c2ccc3cnccc3c2)c(F)c1`, the concentration for half-maximal inhibition (IC50) in assay [1] was 5.6 µM; in assay [2] it was 37.9 µM; in assay [3] it was greater than 100 µM; in assay [4] it was greater than 100 µM; in assay [5], greater than 100 µM; in assay [6], greater than 100 µM. In addition, the IC50 is greater than 100 µM in assay [7]; 5.6 µM in [8]; 67.7 µM in assay [9]; greater than 100 µM in assay [10]; greater than 100 µM in assay [11]; greater than 100 µM in assay [12].

For orientation: IC50 means the concentration that gives 50% inhibition.

These data come from ChEMBL document CHEMBL5104202, “Structure-Uptake Relationship Studies of Oxazolidinones in Gram-Negative ESKAPE Pathogens” (J Med Chem, 2022).
